Laboratory results published in patent US20240368131A1, “OXOINDOLINYL AMIDE DERIVATIVES FOR INHIBITING NLRP3 AND USES THEREOF” (VENTUS THERAPEUTICS U.S. INC., priority 2022, published 2024).

Tests used:
human NLRP3 [1] = molecular target: T1, human NLRP3 (Homo sapiens, UniProt Q96P20); experiment: Human PBMC NLRP3 Assay (IL-1β release); assay type: cell-based; set-up: Human PBMCs (Normal): iXCells Cat #10HU-003; host or cells: human PBMCs (normal donors), LPS-primed, nigericin-stimulated; settings: human PBMCs
Experimental: Reagents: Human PBMCs (Normal): iXCells Cat #10HU-003; RPMI 1640 medium (ATCC modification): ThermoFisher Cat #A1049101 (Complete Media: 10% FBS, 1% Pen/Strep; Assay Media: 1% Pen/Strep; 75 cm^2 cell culture flask: Corning Cat #430641U; 96-well cell culture plates: VWR Cat #10062-900; LPS (E. coli 026:B6): Sigma Cat #L2654, stock 5 mg/mL in PBS; Nigericin sodium salt: Sigma Cat #N7143, stock 5 mg/mL (6.7 mM) in ethanol.
Cryopreserved PBMCs (10×10^6 cells/vial) were rapidly thawed in a 37° C. water bath for 2 min and transferred in 10 mL Complete Media. Cells were then centrifuged at 1200 RPM for 5 min, resuspended in 40 mL of Complete Media, transferred in a 75 cm^2 cell culture flask and incubated overnight at 37° C. with 5% CO2. The next day, PBMCs were centrifuged, resuspended in 30 mL Assay Media (˜3.3×10^5 cells/mL) and distributed at 100 μL/well in a 96-well cell culture plate. 50 μl of Assay Media containing 300 ng/ml of LPS was then added to each well except for the untreated control wells (50 μl Assay Media without LPS). Cells were then primed with LPS for 4 h at 37° C. with 5% CO2. A concentration response curve (CRC) was prepared of 500× test compound in 100% dimethyl sulfoxide (DMSO). The CRC was then diluted 1:25 in Assay Media and then further diluted 1:5 in Assay Media resulting in a final 4× CRC in 0.8% DMSO/Assay Media. 50 μL/well of 4× test compound CRC or vehicle (0.8% DMSO/Assay Media) was then transferred into each well and subsequently incubated for 30 min at 37° C. with 5% CO2. Cells were stimulated by adding 4 μL of 500 μM Nigericin, for 1 h at 37° C. with 5% CO2 Plates were then centrifuged at 1200 RPM for 5 min and 100 μl of the media was transferred to a clean 96-well storage plate and stored at −80° C. until analyzed. Cytokine measurements were performed using the mesoscale platform. Compounds were added 30 minutes before priming the cells with LPS when TNFα was required to be quantified in the cytokine panel to confirm selectivity.
Human PBMC NLRP3 Assay: A represents an IC50 value <0.3 μM; B represents an IC50 value ≥0.3 μM and <0.5 μM; C represents an IC50 value ≥0.5 μM and <1.0 μM; D represents an IC50 value >1.0 μM and <10 μM; E represents an IC50 value >10 μM.

human NLRP3 [2] = molecular target: T1, human NLRP3; experiment: Human Whole Blood (hWB) NLRP3 Assay (IL-1β MSD); assay type: cell-based; settings: LPS 1 μg/ml 4.5 h, ATP 30 min, class symbols
Experimental: Human whole blood was drawn from healthy volunteers after obtaining written informed consent. Heparin lithium coated tubes were used to collect blood from volunteers. Blood samples were distributed on 96 well plates using 90 μl per well. Priming was performed by adding 5 μl of LPS (O26:B6; Sigma L-2654) at a final concentration of 1 μg/ml for 4.5 hours in a humidified incubator with 37° C., 5% CO2. Thirty minutes prior to NLRP3 activation, 5 μl of a 20× compound solution or vehicle (2% DMSO) was added to each well and plates were incubated on a shaker (450 rpm) in a humidified incubator with 37° C., 5% CO2. Activation was then performed by adding 3.3 μl of a 31× ATP solution per well. At the end of the 30 minutes stimulation, the plates were centrifuged (800 g, 10 min, room temperature) and the plasma from each well was frozen at −80° C. IL-1β levels in the supernatant were analyzed using a mesoscale discovery assay (MSD K151TUK) according to the manufacturers' instructions.
hWB IL-1β Assay: A represents an IC50 value <0.3 μM; B represents an IC50 value ≥0.3 μM and <0.5 μM; C represents an IC50 value ≥0.5 μM and <1.0 μM; D represents an IC50 value >1.0 μM.

[3] = LPS priming 4 h, nigericin stimulation 1 h, class symbols
[4] = LPS priming, nigericin stimulation, numeric values of Tables C1-C4

T1 sequence (Q96P20 whole entry): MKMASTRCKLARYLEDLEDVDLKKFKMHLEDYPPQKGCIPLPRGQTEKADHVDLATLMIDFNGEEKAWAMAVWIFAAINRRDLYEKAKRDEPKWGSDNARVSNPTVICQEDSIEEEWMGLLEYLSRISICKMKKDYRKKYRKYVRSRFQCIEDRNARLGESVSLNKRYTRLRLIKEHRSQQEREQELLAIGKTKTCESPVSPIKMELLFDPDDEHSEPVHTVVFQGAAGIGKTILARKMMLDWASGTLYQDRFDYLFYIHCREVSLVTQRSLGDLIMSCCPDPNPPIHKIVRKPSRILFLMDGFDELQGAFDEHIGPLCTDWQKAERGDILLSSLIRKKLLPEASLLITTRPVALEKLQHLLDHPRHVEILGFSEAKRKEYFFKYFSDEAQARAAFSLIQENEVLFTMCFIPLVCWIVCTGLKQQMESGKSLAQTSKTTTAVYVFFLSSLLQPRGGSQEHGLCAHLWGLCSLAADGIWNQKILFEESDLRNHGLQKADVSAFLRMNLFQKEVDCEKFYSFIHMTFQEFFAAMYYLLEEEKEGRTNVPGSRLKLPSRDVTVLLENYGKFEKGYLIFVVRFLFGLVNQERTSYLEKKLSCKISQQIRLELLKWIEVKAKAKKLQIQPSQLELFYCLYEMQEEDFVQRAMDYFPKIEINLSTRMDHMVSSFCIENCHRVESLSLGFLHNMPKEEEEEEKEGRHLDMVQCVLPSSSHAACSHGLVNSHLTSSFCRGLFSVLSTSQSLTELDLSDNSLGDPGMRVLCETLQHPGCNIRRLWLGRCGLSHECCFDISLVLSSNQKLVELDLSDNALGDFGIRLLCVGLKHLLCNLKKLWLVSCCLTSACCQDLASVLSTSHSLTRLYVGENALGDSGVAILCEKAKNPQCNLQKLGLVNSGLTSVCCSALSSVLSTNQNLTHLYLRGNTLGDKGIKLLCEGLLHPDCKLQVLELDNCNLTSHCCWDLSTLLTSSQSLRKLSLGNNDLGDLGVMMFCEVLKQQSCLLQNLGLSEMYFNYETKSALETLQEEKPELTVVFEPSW

Compound	IC50 (human NLRP3 [1]; [3]) [nM]	IC50 (human NLRP3 [2]) [nM]	IC50 (human NLRP3 [1]; [4]) [nM]
C[C@@H](CNC(=O)CN1C(=O)C(C)(C)c2cc(Br)cc(O)c21)CC(=O)O (single isomer, unassigned) [42A*]	< 300		
C[C@H](CNC(=O)CN1C(=O)C(C)(C)c2cc(Br)cc(O)c21)CC(=O)O (single isomer, unassigned) [42B*]	< 300		
CC1(C)C(=O)N(CC(=O)N[C@@H]2CCC[C@@H]2C(=O)O)c2ccc(Br)cc21 (single isomer, unassigned) [52A*]	> 10000		
C[C@H](NC(=O)CN1C(=O)C(C)(C)c2c(F)c(C(F)(F)F)cc(F)c21)[C@@H](C)CC(=O)O (single isomer, unassigned) [67C*]		> 1000	
C[C@H](CC(=O)O)[C@@H](C)NC(=O)CN1C(=O)C(C)(C)c2c(F)c(C(F)(F)F)cc(F)c21 (single isomer, unassigned) [67D*]		300 to 500	
O=C(O)CCCNC(=O)Cn1ccc2ccccc21 [COMPARATIVE EXAMPLE 1, 4-(2-(1H-indol-1-yl)acetamido)butanoic acid, reference compound]			> 100000
O=C(O)CCCNC(=O)Cn1ccc2cc(Br)ccc21 [COMPARATIVE EXAMPLE 2, 4-(2-(5-bromo-1H-indol-1-yl)acetamido)butanoic acid, reference compound]			7200
O=C(O)CCCNC(=O)CN1C(=O)Cc2cc(Br)ccc21 [COMPARATIVE EXAMPLE 3, 4-(2-(5-bromo-2-oxoindolin-1-yl)acetamido)butanoic acid, reference compound]			47000
O=C(O)CCCNC(=O)CN1C(=O)C(=O)c2cc(Br)ccc21 [COMPARATIVE EXAMPLE 4, 4-(2-(5-bromo-2,3-dioxoindolin-1-yl)acetamido)butanoic acid, reference compound]			> 100000
O=C(O)CCNC(=O)Cn1ccc2cc(Br)ccc21 [COMPARATIVE EXAMPLE 5, 3-(2-(5-bromo-1H-indol-1-yl)acetamido)propanoic acid, reference compound]			> 100000
CC1(C)C(=O)N(CC(=O)NCCCc2nnc[nH]2)c2c(F)cc(C3CC3)c(F)c21 [COMPARATIVE EXAMPLE 6, N-(3-(4H-1,2,4-triazol-3-yl)propyl)-2-(5-cyclopropyl-4,7-difluoro-3,3-dimethyl-2-oxoindolin-1-yl)acetamide, reference compound]			941
CC1(C)C(=O)N(CC(=O)NCCCc2cn[nH]n2)c2c(F)cc(C3CC3)c(F)c21 [COMPARATIVE EXAMPLE 7, N-(3-(2H-1,2,3-triazol-4-yl)propyl)-2-(5-cyclopropyl-4,7-difluoro-3,3-dimethyl-2-oxoindolin-1-yl)acetamide, reference compound]			676
O=C(O)CCCNC(=O)CN1C(=O)C2(CCCC2)c2cc(Br)ccc21 [Compound 5, 4-(2-(5′-bromo-2′-oxospiro[cyclopentane-1,3′-indolin]-1′-yl)acetamido)butanoic acid]	> 10000		
O=C(O)CCCNC(=O)CN1C(=O)C2(CC2)c2cc(Br)ccc21 [Compound 6, 4-(2-(5′-bromo-2′-oxospiro[cyclopropane-1,3′-indolin]-1′-yl)acetamido)butanoic acid]	500 to 1000		570
Cc1ccc2c(c1)C(C)(C)C(=O)N2CC(=O)NCCCC(=O)O [Compound 7, 4-(2-(3,3,5-trimethyl-2-oxoindolin-1-yl)acetamido)butanoic acid]	1000 to 10000		
CC(C)(CCC(=O)O)NC(=O)CN1C(=O)C(C)(C)c2cc(C(F)(F)F)ccc21 [Compound 8, 4-(2-(3,3-dimethyl-2-oxo-5-(trifluoromethyl)indolin-1-yl)acetamido)-4-methylpentanoic acid]	500 to 1000		690
CC(C)(CCC(=O)O)NC(=O)CN1C(=O)C(C)(C)c2cc(C3CC3)ccc21 [Compound 9, 4-(2-(5-cyclopropyl-3,3-dimethyl-2-oxoindolin-1-yl)acetamido)-4-methylpentanoic acid]	500 to 1000		670
CC(C)c1ccc2c(c1)C(C)(C)C(=O)N2CC(=O)NC(C)(C)CCC(=O)O [Compound 10, 4-(2-(5-isopropyl-3,3-dimethyl-2-oxoindolin-1-yl)acetamido)-4-methylpentanoic acid]	300 to 500		
CC(C)(CNC(=O)CN1C(=O)C(C)(C)c2cc(Br)ccc21)CC(=O)O [Compound 13, 4-(2-(5-bromo-3,3-dimethyl-2-oxoindolin-1-yl)acetamido)-3,3-dimethylbutanoic acid]	< 300		110
CC(C)(CCNC(=O)CN1C(=O)C(C)(C)c2cc(Br)ccc21)C(=O)O [Compound 14, 4-(2-(5-bromo-3,3-dimethyl-2-oxoindolin-1-yl)acetamido)-2,2-dimethylbutanoic acid]	1000 to 10000		
CC1(C)C(=O)N(C2(C(=O)NCCCC(=O)O)CC2)c2ccc(Br)cc21 [Compound 15, 4-(1-(5-bromo-3,3-dimethyl-2-oxoindolin-1-yl)cyclopropane-1-carboxamido)butanoic acid]	> 10000		
CC1(C)C(=O)N(CC(=O)NCCCC(=O)O)c2cc(F)c(Br)cc21 [Compound 20, 4-(2-(5-bromo-6-fluoro-3,3-dimethyl-2-oxoindolin-1-yl)acetamido)butanoic acid]	1000 to 10000		
CC1(C)C(=O)N(CC(=O)NCCCC(=O)O)c2ccc(C3CCCC3)cc21 [Compound 25, 4-(2-(5-cyclopentyl-3,3-dimethyl-2-oxoindolin-1-yl)acetamido)butanoic acid]	> 10000		
COc1cc(Br)cc2c1N(CC(=O)NCCCC(=O)O)C(=O)C2(C)C [Compound 27, 4-(2-(5-bromo-7-methoxy-3,3-dimethyl-2-oxoindolin-1-yl)acetamido)butanoic acid]	> 10000		
CC1(C)C(=O)N(CC(=O)NCCCC(=O)O)c2cc(O)c(Br)cc21 [Compound 36, 4-(2-(5-bromo-6-hydroxy-3,3-dimethyl-2-oxoindolin-1-yl)acetamido)butanoic acid]	> 10000		
C[C@H](CCC(=O)O)NC(=O)CN1C(=O)C(C)(C)c2cc(Br)cc(O)c21 [Compound 41A, (R)-4-(2-(5-bromo-7-hydroxy-3,3-dimethyl-2-oxoindolin-1-yl)acetamido)pentanoic acid]	< 300		
CC1(C)C(=O)N(CC(=O)NC2(CCC(=O)O)CC2)c2c(O)cc(Br)cc21 [Compound 44, 3-(1-(2-(5-bromo-7-hydroxy-3,3-dimethyl-2-oxoindolin-1-yl)acetamido)cyclopropyl)propanoic acid]	< 300		
CC1(C)C(=O)N(CC(=O)NCc2ccccc2C(=O)O)c2ccc(Br)cc21 [Compound 49, 2-((2-(5-bromo-3,3-dimethyl-2-oxoindolin-1-yl)acetamido)methyl)benzoic acid]	> 10000		
CC1(C)C(=O)N(CC(=O)NCCCC(=O)O)c2c(C(F)(F)F)cc(Br)cc21 [Compound 50, 4-(2-(5-bromo-3,3-dimethyl-2-oxo-7-(trifluoromethyl)indolin-1-yl)acetamido)butanoic acid]	> 10000		
O=C(O)CCCNC(=O)CN1C(=O)C(F)(F)c2cc(Br)ccc21 [Compound 51, 4-(2-(5-bromo-3,3-difluoro-2-oxoindolin-1-yl)acetamido)butanoic acid]	300 to 500		410
